From US8414870B2, “Benzylidene substituted 2,4-pentanedione compounds and use thereof as stabilizers” (Sytheon, Ltd., priority 2010, dated 2013)

Experiments:
[1] = Photostabilization of avobenzone in ethanol test solution under sun simulator; assay type: physicochemical
Description: A comparative photostabilization study was conducted comparing the photostabilization efficacy of Synoxy™ AS with Octocrylene and Oxynex® ST in the stabilization of avobenzone. Samples for evaluation were prepared as follows:
Solutions of the photosensitive material and photostabilizer in ethanol were prepared, typically at a 1:1 to 1:5 weight ratio. A base test solution of 3% Avobenzone+5% Octyl salicylate+10% Homoslate in ethanol (the “Test Solution”) was made. Four additional solutions were prepared by adding 2% Synoxyl™ AS, 4% Octocrylene, 2% Oxynex® ST, and 2% Dehydrozingerone, respectively, to four aliquots of the Test Solution.
Samples of each solution were prepared as ultra h n films between two quartz plates so as to obtain a minimum of 90% light transmission over the entire spectrum range of non absorbing chromophores. […] Each sample was then irradiated under sun simulator (754 W/m^2, 2 MED/h, UV dose from 20 to 100 Jules/cm^2) for various durations and light absorption spectra recorded for each sample at given times. The maximal absorption band λmax of each solution was determined before and after irradiation. The amount of the photosensitive materials remaining in solution after irradiation was calculated as the ratio of theft two maximal absorptions.

[2] = Peroxynitrile antioxidant capacity; settings: method of Zhang et al. 2007
Text: (§1) The antioxidant profile of the compound of Example 1, Synoxyl™ AS, was compared to two widely used commercial antioxidants, natural tocopherol and Oxynex® ST, a proprietary stabilizer based on Diethylhexyl Syringylidene Malonate (DESM), available form EMD Chemicals, Inc., of Gibbstown, N.J., USA. Several test methods were employed.

[3] = Hydroxyl radical antioxidant capacity; settings: method of Ou et al. 2002
Text: as §1

[4] = Singlet oxygen antioxidant capacity; settings: method of Zhang et al. 2009
Text: as §1

[5] = Peroxyl radical antioxidant capacity (ORAC); settings: method of Ou et al. 2001
Text: as §1

[6] = Superoxide antioxidant capacity; settings: method of Dubost et al. 2007
Text: as §1

[7] = Stabilization of colored shampoo, fluorescent light aging; assay type: physicochemical; settings: 0.4 g in 120 g shampoo, ambient temperature, 4 weeks (unmodified shampoo 21.6)
Description: The stabilizer compound according to Example 1, Synoxyl™ AS, was added to a commercial shampoo formulation in order to evaluate its ability to reduce the amount of dye fading following exposure to fluorescent lighting. The sample was prepared by dissolving 0.4 g of Synoxyl™ AS in 5 ml of ethanol and then adding the solution to 120 g of Suave® Natural Fresh Mountain Strawberry Shampoo with agitation and agitated for 15 minutes. A sample of the unmodified shampoo and the modified shampoo are then placed into 20 ml glass scintillation vials. Both sets of vials were weathered under fluorescent light aging at ambient temperature for 4 weeks. The L*a*b coordinates before and after exposure are measured using X-Rite 938 Spectra-densitometer. Color change is expressed as Delta E (ΔE) which is calculated by the formula: ΔE=[(ΔL*)^2+(Δa*)^2+(Δb*)^2]^1/2

[8] = Photostabilization of water-soluble dyes, solar simulated light; assay type: physicochemical; settings: 0.05% in dye premix; solar simulated light ~40 hours (without stabilizer color lost within about 2 hours)
Description: The stabilizer compound identified as Synoxyl™ AS according to Example 1 was added to two dye premix formulations as set forth in Table 9 in order to evaluate its ability to reduce the amount of dye fading following exposure to solar simulated light. Control samples without the Synoxyl™ AS were also subjected to the same conditions.

[9] = cited from earlier work

| SMILES | stabilization of photosensitive compounds [1] | Peroxynitrile [2] [Trolox equivalent/gm] | Hydroxyl [3] | Singlet oxygen [4] | Peroxyl (ORAC) [5] | Superoxide [6] | change in color, Delta E [7] | dye fading [8] | solubility in chloroform ([9]; chloroform) | solubility in ether ([9]; ether) | solubility in methylene chloride ([9]; methylene chloride) |
| --- | --- | --- | --- | --- | --- | --- | --- | --- | --- | --- | --- |
| COc1cc(/C=C/C(C)=O)ccc1O [Dehydrozingerone] | fails to stabilize photosensitive compounds |  |  |  |  |  |  |  |  |  |  |
| CCCCC(CC)COC(=O)C(=Cc1cc(OC)c(O)c(OC)c1)C(=O)OCC(CC)CCCC (stereo not shown) [Oxynex ® ST, Diethylhexyl Syringylidene Malonate] |  | 0 | 0 Trolox equivalent/gm | 4,532 Trolox equivalent/gm | 550 Trolox equivalent/gm | 0 Trolox equivalent/gm |  |  |  |  |  |
| COc1cc(C=C(C(C)=O)C(C)=O)ccc1O [Synoxyl ™ AS, 3-(4-Hydroxy, 3-methoxybenzylidene)-2,4-pentanedione] |  | 9 | 47,180 Trolox equivalent/gm | 13,283 Trolox equivalent/gm | 14,363 Trolox equivalent/gm | 1,042 Trolox equivalent/gm | 12.3 | did not fade |  |  |  |
| CC1=C(/C=C/C(C)=C/C=C/C(C)=C/C(=O)O)C(C)(C)CCC1 [tretinoin, all-trans-retinoic acid] |  |  |  |  |  |  |  |  | slightly soluble | sparingly soluble | soluble |
